{"source": "patent EP2276483B1", "about": "“SOLID FORMS COMPRISING (+)-2-[1-(3-ETHOXY-4-METHOXYPHENYL)-2-METHYLSULFONYLETHYL]-4-ACETYLAMINOISOINDOLINE-1,3-DIONE, COMPOSITIONS THEREOF, AND USES THEREOF” (CELGENE CORPORATION, priority 2008, dated 2009)", "key": {"TNF-α": {"tested_on": "TNF-α", "test": "LPS-induced TNF-α production from human PBMC", "format": "cell-based", "details": "LPS 100 ng/ml", "description": "Lipopolysaccharide (LPS) is an endotoxin produced by gram-negative bacteria such as E. coli which induces production of many pro-inflammatory cytokines, including TNF-α. In peripheral blood mononuclear cells (PBMC), the TNF-α produced in response to LPS is derived from monocytes, which comprise approximately 5-20% of the total PBMC. Compounds were tested for the ability to inhibit LPS-induced TNF-α production from human PBMC as previously described (Muller et al., 1996, J. Med. Chem., 39:3238). PBMC from normal donors were obtained by Ficoll Hypaque (Pharmacia, Piscataway, NJ, USA) density centrifugation. Cells were cultured in RPMI (Life Technologies, Grand Island, NY, USA) supplemented with 10% AB± human serum (Gemini Bio-products, Woodland, CA, USA), 2 mM L-glutamine, 100 U/ml penicillin, and 100 µg/ml streptomycin (Life Technologies).\nPBMC (2 x 10^5 cells) were plated in 96-well flat-bottom Costar tissue culture plates (Coming, NY, USA) in triplicate. Cells were stimulated with LPS (Sigma, St. Louis, MO, USA) at 100 ng/ml in the absence or presence of compounds. Compounds (Celgene Corp., Warren, NJ, USA) were dissolved in DMSO (Sigma) and further dilutions were done in culture medium immediately before use. The final DMSO concentration in all samples was 0.25%. Compounds were added to cells one hour before LPS stimulation. […]"}, "PDE4 (from U937 cells)": {"tested_on": "PDE4 (from U937 cells)", "test": "PDE4 (U937 cell-derived) enzyme assay", "format": "biochemical, human", "details": "1 µM cAMP", "description": "PDE4 enzyme was purified from U937 human monocytic cells by gel filtration chromatography as previously described (Muller et al., 1998, Bioorg. & Med. Chem. Lett. 8:2669-2674). Phosphodiesterase reactions were carried out in 50 mM Tris HCl pH 7.5, 5 mM MgCl2, 1 µM cAMP, 10 nM [^3H]-cAMP for 30 min at 30°C, terminated by boiling, treated with 1 mg/ml snake venom, and separated using AG-1XS ion exchange resin (BioRad) as described (Muller et al., 1998, Bioorg. & Med. Chem. Lett. 8:2669-2674). Reactions consumed less than 15% of available substrate. Table 1. PDE Specificity"}, "cAMP": {"tested_on": "cAMP", "test": "PGE2-induced cAMP elevation in human neutrophils", "format": "cell-based", "details": "Neutrophil", "description": "Prostaglandin E2 (PGE2) binds to prostanoid receptors on monocytes, T cells and other leukocytes and consequently elevates intracellular cAMP levels, resulting in inhibition of cellular responses. The combination of PGE2 and a PDE4 inhibitor synergistically elevates cAMP levels in these cell types, and the elevation of cAMP in PBMC caused by PDE4 inhibitors in the presence of PGE2 is proportional to the inhibitory activity of that PDE4 inhibitor. Intracellular cAMP was measured in human PBMC as follows. PBMC were isolated as described above and plated in 96-well plates at 1 x 10^6 cells per well in RPMI-1640. The cells were pre-treated with compounds at 100, 10, 1, 0.1, 0.01, and 0 µM in a final concentration of 2% DMSO in duplicate at 37°C in a humidified incubator at 5% CO2 for one hour. The cells were then stimulated with PGE2 (10µM) (Sigma) for 1h. The cells were lysed with HCl, 0.1 N final concentration to inhibit phosphodiesterase activity and the plates were frozen at -20°C. The cAMP produced was measured using cAMP (low pH) Immunoassay kit (R&D Systems).\nElevation of cAMP in human neutrophils was measured as follows. PBMC were removed from source leukocytes (Sera-Tec Biologicals) by centrifugation on Ficoll-Paque Plus (Amersham Pharmacia). […]"}, "IL-8": {"tested_on": "IL-8", "test": "Zymosan-induced IL-8 production in human neutrophils", "format": "cell-based", "details": "Neutrophil", "description": "Zymosan A, or the heat-killed yeast Saccharomyces cerevisiae, binds to the adhesion molecule Mac-1 on the neutrophil surface and triggers phagocytosis, cell activation and IL-8 production. Zymosan-induced IL-8 production was measured as previously described (Au et al., 1998, Brit. J. Pharm., 123:1260-1266) with the following modifications. Human neutrophils were purified as described above, plated in 96-well tissue culture plates at 3x10^5 cells/well in complete medium, treated with compounds at 10, 2, 0.4, 0.08, 0.016, 0.0032, 0.00064, and 0 µM in duplicate in a final DMSO concentration of 0.1% for 1 hour at 37°C 5% CO2. Neutrophils were then stimulated with unopsonized, boiled Zymosan A (Sigma) at 2.5 x 10^5 particles/well for 18 hours. Supernatants were harvested and tested for IL-8 by ELISA (R&D Systems)."}, "[1]": {"test": "Aqueous equilibrium solubility in pH 7.4 buffer", "format": "physicochemical", "details": "pH 7.4", "description": "Equilibrium solubilities were measured in pH 7.4 aqueous buffer. The pH 7.4 buffer was prepared by adjusting the pH of a 0.07 M NaH2PO4 solution to 7.4 with 10 N NaOH. The ionic strength of the solution was 0.15. At least 1 mg of powder was combined with 1 ml of buffer to make >1 mg/ml mixture. These samples were shaken for >2 hours and left to stand overnight at room temperature. The samples were then filtered through a 0.45-µm Nylon syringe filter that was first saturated with the sample. The filtrate was sampled twice, consecutively. The filtrate was assayed by HPLC against standards prepared in 50% methanol."}}}
{"smiles": "CCOc1cc(C(CS(C)(=O)=O)N2C(=O)c3cccc(NC(C)=O)c3C2=O)ccc1OC", "note": "(single isomer, unassigned; (+)) [Compound A, (+)-2-[1-(3-ethoxy-4-methoxyphenyl)-2-methylsulfonylethyl]-4-acetylaminoisoindoline-1,3-dione]", "values": [{"measurement": "IC50", "setting": "TNF-α", "value": 77, "unit": "nM"}, {"measurement": "IC50", "setting": "PDE4 (from U937 cells)", "value": 73.5, "unit": "nM"}, {"measurement": "EC50", "setting": "cAMP", "value": 4570, "unit": "nM"}, {"measurement": "IC50", "setting": "IL-8", "value": 94, "unit": "nM"}, {"measurement": "Measured solubility", "setting": "[1]", "value": 12, "unit": "µg/mL"}, {"measurement": "greater aqueous solubility than the racemic mixture", "setting": "[1]", "value": 3.5, "unit": "fold"}]}
